{
  "source": "ChEMBL document CHEMBL1152691",
  "about": "“Design and synthesis of novel 2',3'-dideoxy-4'-selenonucleosides as potential antiviral agents” (Bioorg Med Chem, 2008)",
  "note": "Active and inactive are the calls of the source. The calls are words filed in the database; no cut-off is given here.",
  "data": [
    {"test_system": "Human immunodeficiency virus", "assay": "Antiviral activity against HIV", "assay_type": "functional, organism-based", "values": [
      {"smiles": "Nc1ccn([C@H]2CC[C@@H](CO)[Se]2)c(=O)n1", "Activity": "inactive"},
      {"smiles": "Cc1cn([C@H]2CC[C@@H](CO)[Se]2)c(=O)[nH]c1=O", "Activity": "inactive"},
      {"smiles": "O=c1ccn([C@H]2CC[C@@H](CO)[Se]2)c(=O)[nH]1", "Activity": "inactive"}
    ]}
  ]
}
